PubChem BioAssay AID1963970 (Molecular Pharmacology Branch, DTP, NCI, 2024)

System: 931267-113-T-J1-PDC multicell spheroid viability
Assay: Anticancer human tumor 931267-113-T-J1-PDC patient-derived colon adenocarcinoma cell line growth inhibition [PI3K]
Conditions: for IC50: curve of first compound; for viability, T/C: stronger effect = lower value
Summary of the method: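 Viability of mixed-cell spheroids was determined after exposure to pairwise combinations, one partner being inavolisib, alpelisib, duvelisib or copanlisib. Highest tested concentration matched clinical Cmax where known and 10 microM where not, descending in half-log steps.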

[1] = second compound 0.00316 µM, first compound 0.0316 µM
[2] = second compound 0.00316 µM, first compound 0.1 µM
[3] = second compound 0.00316 µM, first compound 0.316 µM
[4] = second compound 0.00316 µM, first compound 1 µM
[5] = second compound 0.00316 µM, first compound 3.16 µM
[6] = second compound 0.00316 µM, first compound 10 µM
[7] = second compound 0.01 µM, first compound 0.0316 µM
[8] = second compound 0.01 µM, first compound 0.1 µM
[9] = second compound 0.01 µM, first compound 0.316 µM
[10] = second compound 0.01 µM, first compound 1 µM
[11] = second compound 0.01 µM, first compound 3.16 µM
[12] = second compound 0.01 µM, first compound 10 µM
[13] = second compound 0.0316 µM, first compound 0.0316 µM
[14] = second compound 0.0316 µM, first compound 0.1 µM
[15] = second compound 0.0316 µM, first compound 0.316 µM
[16] = second compound 0.0316 µM, first compound 1 µM
[17] = second compound 0.0316 µM, first compound 3.16 µM
[18] = second compound 0.0316 µM, first compound 10 µM
[19] = second compound 0.1 µM, first compound 0.0316 µM
[20] = second compound 0.1 µM, first compound 0.1 µM
[21] = second compound 0.1 µM, first compound 0.316 µM
[22] = second compound 0.1 µM, first compound 1 µM
[23] = second compound 0.1 µM, first compound 3.16 µM
[24] = second compound 0.1 µM, first compound 10 µM
[25] = second compound 0.316 µM, first compound 0.0316 µM
[26] = second compound 0.316 µM, first compound 0.1 µM
[27] = second compound 0.316 µM, first compound 0.316 µM
[28] = second compound 0.316 µM, first compound 1 µM
[29] = second compound 0.316 µM, first compound 3.16 µM
[30] = second compound 0.316 µM, first compound 10 µM
[31] = second compound 1 µM, first compound 0.0316 µM
[32] = second compound 1 µM, first compound 0.1 µM
[33] = second compound 1 µM, first compound 0.316 µM
[34] = second compound 1 µM, first compound 1 µM
[35] = second compound 1 µM, first compound 3.16 µM
[36] = second compound 1 µM, first compound 10 µM
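Further: viability read 7 days after compound addition.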

C[C@@H](NC(=O)c1ncnc(N)c1Cl)c1ncc(C(=O)Nc2cc(C(F)(F)F)c(Cl)cn2)s1 + COc1c(OCCCN2CCOCC2)ccc2c3n(c(=NC(=O)c4cnc(N)nc4)nc12)CCN3
IC50 (second compound 0.00316 µM): > 10000 nM
IC50 (second compound 0.01 µM): > 10000 nM
IC50 (second compound 0.0316 µM): > 10000 nM
IC50 (second compound 0.1 µM): 4050 nM
IC50 (second compound 0.316 µM): 1320 nM
IC50 (second compound 1 µM): < 31.6 nM
viability, T/C [1]: 109%
viability, T/C [2]: 117%
viability, T/C [3]: 106%
viability, T/C [4]: 111%
viability, T/C [5]: 105%
viability, T/C [6]: 76%
viability, T/C [7]: 108%
viability, T/C [8]: 102%
viability, T/C [9]: 104%
viability, T/C [10]: 115%
viability, T/C [11]: 96.5%
viability, T/C [12]: 74.2%
viability, T/C [13]: 95.3%
viability, T/C [14]: 94.4%
viability, T/C [15]: 94.7%
viability, T/C [16]: 92.1%
viability, T/C [17]: 76.6%
viability, T/C [18]: 51%
viability, T/C [19]: 86.5%
viability, T/C [20]: 75.8%
viability, T/C [21]: 76.6%
viability, T/C [22]: 65%
viability, T/C [23]: 57.2%
viability, T/C [24]: 33.7%
viability, T/C [25]: 58.9%
viability, T/C [26]: 58.8%
viability, T/C [27]: 59.4%
viability, T/C [28]: 51.4%
viability, T/C [29]: 41.8%
viability, T/C [30]: 25.1%
viability, T/C [31]: 45.4%
viability, T/C [32]: 41%
viability, T/C [33]: 42.6%
viability, T/C [34]: 35.2%
viability, T/C [35]: 32.1%
viability, T/C [36]: 18.5%

Cn1cnc2c(F)c(Nc3ccc(Br)cc3Cl)c(C(=O)NOCCO)cc21 + Cc1nc(NC(=O)N2CCCC2C(N)=O)sc1-c1ccnc(C(C)(C)C(F)(F)F)c1
IC50 (second compound 0.0316 µM): 75.8 nM
IC50 (second compound 0.1 µM): 80.6 nM
IC50 (second compound 0.316 µM): 61.6 nM
IC50 (second compound 1 µM): 42.1 nM
IC50 (second compound 3.16 µM): 19.6 nM
IC50 (second compound 10 µM): < 9.49 nM
viability, T/C (second compound 0.0316 µM, first compound 0.00949 µM): 86%
viability, T/C (second compound 0.0316 µM, first compound 0.03 µM): 63.5%
viability, T/C (second compound 0.0316 µM, first compound 0.0949 µM): 47.3%
viability, T/C (second compound 0.0316 µM, first compound 0.3 µM): 32.2%
viability, T/C (second compound 0.0316 µM, first compound 0.949 µM): 18.7%
viability, T/C (second compound 0.0316 µM, first compound 3 µM): 12%
viability, T/C (second compound 0.1 µM, first compound 0.00949 µM): 85.7%
viability, T/C (second compound 0.1 µM, first compound 0.03 µM): 70.2%
viability, T/C (second compound 0.1 µM, first compound 0.0949 µM): 44.1%
viability, T/C (second compound 0.1 µM, first compound 0.3 µM): 30.1%
viability, T/C (second compound 0.1 µM, first compound 0.949 µM): 21%
viability, T/C (second compound 0.1 µM, first compound 3 µM): 10.4%
viability, T/C (second compound 0.316 µM, first compound 0.00949 µM): 74.5%
viability, T/C (second compound 0.316 µM, first compound 0.03 µM): 61.5%
viability, T/C (second compound 0.316 µM, first compound 0.0949 µM): 43.3%
viability, T/C (second compound 0.316 µM, first compound 0.3 µM): 25.9%
viability, T/C (second compound 0.316 µM, first compound 0.949 µM): 16.6%
viability, T/C (second compound 0.316 µM, first compound 3 µM): 8.73%
viability, T/C (second compound 1 µM, first compound 0.00949 µM): 66.4%
viability, T/C (second compound 1 µM, first compound 0.03 µM): 60.5%
viability, T/C (second compound 1 µM, first compound 0.0949 µM): 29%
viability, T/C (second compound 1 µM, first compound 0.3 µM): 20.8%
viability, T/C (second compound 1 µM, first compound 0.949 µM): 13.8%
viability, T/C (second compound 1 µM, first compound 3 µM): 5.73%
viability, T/C (second compound 3.16 µM, first compound 0.00949 µM): 64%
viability, T/C (second compound 3.16 µM, first compound 0.03 µM): 41.6%
viability, T/C (second compound 3.16 µM, first compound 0.0949 µM): 26.7%
viability, T/C (second compound 3.16 µM, first compound 0.3 µM): 15.1%
viability, T/C (second compound 3.16 µM, first compound 0.949 µM): 9.74%
viability, T/C (second compound 3.16 µM, first compound 3 µM): 5.86%
viability, T/C (second compound 10 µM, first compound 0.00949 µM): 49.8%
viability, T/C (second compound 10 µM, first compound 0.03 µM): 33.1%
viability, T/C (second compound 10 µM, first compound 0.0949 µM): 25.5%
viability, T/C (second compound 10 µM, first compound 0.3 µM): 12.2%
viability, T/C (second compound 10 µM, first compound 0.949 µM): 9.35%
viability, T/C (second compound 10 µM, first compound 3 µM): 3.2%

C#Cc1c(F)ccc2cc(O)cc(-c3ncc4c(N5CC6CCC(C5)N6)nc(OCC56CCCN5CC(F)C6)nc4c3F)c12 (stereo not drawn) + COc1c(OCCCN2CCOCC2)ccc2c3n(c(=NC(=O)c4cnc(N)nc4)nc12)CCN3
IC50 (second compound 0.00316 µM): 384 nM
IC50 (second compound 0.01 µM): 238 nM
IC50 (second compound 0.0316 µM): 93.2 nM
IC50 (second compound 0.1 µM): 37.8 nM
IC50 (second compound 0.316 µM): < 31.6 nM
IC50 (second compound 1 µM): < 31.6 nM
viability, T/C [1]: 78.6%
viability, T/C [2]: 67.9%
viability, T/C [3]: 51.9%
viability, T/C [4]: 38%
viability, T/C [5]: 24.8%
viability, T/C [6]: 17.2%
viability, T/C [7]: 84.7%
viability, T/C [8]: 70.5%
viability, T/C [9]: 39.2%
viability, T/C [10]: 32.4%
viability, T/C [11]: 21.2%
viability, T/C [12]: 15.9%
viability, T/C [13]: 62.3%
viability, T/C [14]: 52.1%
viability, T/C [15]: 30.2%
viability, T/C [16]: 23.8%
viability, T/C [17]: 21.4%
viability, T/C [18]: 11%
viability, T/C [19]: 54%
viability, T/C [20]: 34.4%
viability, T/C [21]: 25.5%
viability, T/C [22]: 19%
viability, T/C [23]: 13.3%
viability, T/C [24]: 6.82%
viability, T/C [25]: 36.4%
viability, T/C [26]: 26.7%
viability, T/C [27]: 17.1%
viability, T/C [28]: 10.5%
viability, T/C [29]: 7.67%
viability, T/C [30]: 4.44%
viability, T/C [31]: 24.3%
viability, T/C [32]: 20.9%
viability, T/C [33]: 11.7%
viability, T/C [34]: 8.76%
viability, T/C [35]: 5.6%
viability, T/C [36]: 3.48%

CCCS(=O)(=O)Nc1ccc(F)c(C(=O)c2c[nH]c3ncc(-c4ccc(Cl)cc4)cc23)c1F + COc1c(OCCCN2CCOCC2)ccc2c3n(c(=NC(=O)c4cnc(N)nc4)nc12)CCN3
IC50 (second compound 0.00316 µM): 6300 nM
IC50 (second compound 0.01 µM): 5980 nM
IC50 (second compound 0.0316 µM): 5830 nM
IC50 (second compound 0.1 µM): 4990 nM
IC50 (second compound 0.316 µM): 3660 nM
IC50 (second compound 1 µM): < 31.6 nM
viability, T/C [1]: 111%
viability, T/C [2]: 116%
viability, T/C [3]: 104%
viability, T/C [4]: 125%
viability, T/C [5]: 127%
viability, T/C [6]: 5.18%
viability, T/C [7]: 102%
viability, T/C [8]: 101%
viability, T/C [9]: 108%
viability, T/C [10]: 109%
viability, T/C [11]: 110%
viability, T/C [12]: 5.04%
viability, T/C [13]: 87.8%
viability, T/C [14]: 92.2%
viability, T/C [15]: 93.3%
viability, T/C [16]: 111%
viability, T/C [17]: 101%
viability, T/C [18]: 8.61%
viability, T/C [19]: 75.4%
viability, T/C [20]: 68.6%
viability, T/C [21]: 77.2%
viability, T/C [22]: 85.2%
viability, T/C [23]: 77.6%
viability, T/C [24]: 9.09%
viability, T/C [25]: 55.8%
viability, T/C [26]: 51.3%
viability, T/C [27]: 59.2%
viability, T/C [28]: 56.7%
viability, T/C [29]: 57.2%
viability, T/C [30]: 8.55%
viability, T/C [31]: 36.3%
viability, T/C [32]: 39.5%
viability, T/C [33]: 36.3%
viability, T/C [34]: 41.4%
viability, T/C [35]: 39.7%
viability, T/C [36]: 10.2%
